Target: T1, GST-tagged ROR gamma ligand binding domain (LBD) (Homo sapiens, UniProt P51449)
T1 construct: purchased Invitrogen
T1 sequence (P51449 269-508 limits assumed): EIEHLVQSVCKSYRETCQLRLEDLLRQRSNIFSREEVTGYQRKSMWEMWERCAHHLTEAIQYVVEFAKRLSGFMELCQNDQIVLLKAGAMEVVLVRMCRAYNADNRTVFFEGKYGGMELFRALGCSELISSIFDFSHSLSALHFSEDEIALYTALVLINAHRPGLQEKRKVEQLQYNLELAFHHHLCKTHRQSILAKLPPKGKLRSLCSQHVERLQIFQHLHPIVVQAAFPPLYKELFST
Assay: TR-FRET assay for ROR gamma (LanthaScreen co-activator peptide recruitment)
Type: biochemical
Conditions: for IC50: class symbols, from dose response curve; for inhibition at 1 µM: compound 1 μM; for inhibition at 1 µM / inhibition at 10 µM: TR-FRET ratio 520/495, percent of control; for inhibition at 10 µM: compound 10 μM
Procedure, shortened: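 Antagonist mode: 10 nM GST-RORγ LBD pre-incubated with compound 1 h at 22 °C in 25 mM HEPES pH 7.4, 100 mM NaCl, 5 mM DTT, 0.01% BSA, 4% DMSO final. Then 300 nM fluorescein-D22 co-activator peptide plus 10 nM Tb-anti-GST added, 1 h at room temperature. IC50 by nonlinear regression of the 520/495 TR-FRET ratio as percent of no-compound control.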

Compound | IC50 [nM] | inhibition at 1 µM [%] | inhibition at 10 µM [%]
CCN(C(=O)C(C)(C)Oc1ccc(NC(=O)Cc2ccc(S(=O)(=O)CC)cc2)cc1F)c1ccc(Cl)c(F)c1 [Example 131, N-(4-Chloro-3-fluorophenyl)-N-ethyl-2-(4-(2-(4-(ethylsulfonyl)phenyl)acetamido)-2-fluorophenoxy)-2-methylpropanamide] | 50 to 100 | 69.8 | 72.9
CCN(C(=O)C(C)(C)Oc1ccc(F)cc1F)c1ccc(NC(=O)Cc2ccc(S(=O)(=O)CC)cc2)cc1 [Example 132, 2-(2,4-Difluorophenoxy)-N-ethyl-N-(4-(2-(4-(ethylsulfonyl)phenyl)acetamido)phenyl)-2-methylpropanamide] |  | 52.9 | 60.9
CCS(=O)(=O)c1ccc(CC(=O)Nc2ccc(OC3(c4ccc(Cl)cc4Cl)CCCCC3)cc2)cc1 [Example 134, N-(4-((1-(2,4-Dichlorophenyl)cyclohexyl)oxy)phenyl)-2-(4-(ethylsulfonyl)phenyl)acetamide] | < 50 | 77.3 | 81.1
CCS(=O)(=O)c1ccc(CC(=O)Nc2ccc(OC3(c4ccc(Cl)cc4Cl)CCCCC3)c(F)c2)cc1 [Example 135, N-(4-((1-(2,4-Dichlorophenyl)cyclohexyl)oxy)-3-fluorophenyl)-2-(4-(ethylsulfonyl)phenyl)acetamide] | 50 to 100 | 73.2 | 77
CCS(=O)(=O)c1ccc(CC(=O)Nc2ccc(OC3(c4ccc(Cl)cc4Cl)CCOCC3)c(F)c2)cc1 [Example 136, N-(4-((4-(2,4-Dichlorophenyl)tetrahydro-2H-pyran-4-yl)oxy)-3-fluorophenyl)-2-(4-(ethylsulfonyl)phenyl)acetamide] | < 50 | 71.6 | 79.3
CCS(=O)(=O)c1ccc(CC(=O)Nc2ccc(OC3(c4ccc(Cl)cc4Cl)CCCC3)c(F)c2)cc1 [Example 137, N-(4-((1-(2,4-Dichlorophenyl)cyclopentyl)oxy)-3-fluorophenyl)-2-(4-(ethylsulfonyl)phenyl)acetamide] | < 50 | 80 | 86.5
CCS(=O)(=O)c1ccc(CC(=O)Nc2ccc(OC3(c4ccc(Cl)cc4Cl)CC3)c(F)c2)cc1 [Example 138, N-(4-((1-(2,4-Dichlorophenyl)cyclopropyl)oxy)-3-fluorophenyl)-2-(4-(ethylsulfonyl)phenyl)acetamide] | < 50 | 86.8 | 83.6
CCS(=O)(=O)c1ccc(CC(=O)Nc2ccc(OC3(c4ccc(Cl)cc4Cl)CCC3)c(F)c2)cc1 [Example 139, N-(4-((1-(2,4-Dichlorophenyl)cyclobutyl)oxy)-3-fluorophenyl)-2-(4-(ethylsulfonyl)phenyl)acetamide] | < 50 | 86.3 | 82.6
CCS(=O)(=O)c1ccc(CC(=O)Nc2ccc(OC3(c4ccc(F)cc4F)CCCCC3)c(F)c2)cc1 [Example 140, N-(4-((1-(2,4-Difluorophenyl)cyclohexyl)oxy)-3-fluorophenyl)-2-(4-(ethylsulfonyl)phenyl)acetamide] | < 50 | 69.1 | 72.8
CCS(=O)(=O)c1ccc(CC(=O)Nc2ccc(OC3(c4ccc(F)cc4F)CCC3)c(F)c2)cc1 [Example 141, N-(4-(1-(2,4-Difluorophenyl)cyclobutoxy)-3-fluorophenyl)-2-(4-(ethylsulfonyl)phenyl)acetamide] | < 50 | 81.4 | 75.2
CCS(=O)(=O)c1ccc(CC(=O)Nc2ccc(OC3(c4ccc(F)cc4F)COC3)c(F)c2)cc1 [Example 142, N-(4-((3-(2,4-Difluorophenyl)oxetan-3-yl)oxy)-3-fluorophenyl)-2-(4-(ethylsulfonyl)phenyl)acetamide] | < 50 | 81.1 | 81.5
CCn1c(C(C)(C)Oc2ccc(Cl)cc2Cl)nc2cc(NC(=O)Cc3ccc(S(=O)(=O)CC)cc3)ccc21 [Example 144, N-(2-(2-(2,4-Dichlorophenoxy)propan-2-yl)-1-ethyl-1H-benzo[d]imidazol-5-yl)-2-(4-(ethylsulfonyl)phenyl)acetamide] | < 50 | 90.6 | 92.5
CCS(=O)(=O)c1ccc(CC(=O)Nc2ccc3c(c2)nc(C(C)(C)Oc2ccc(F)cc2F)n3CCF)cc1 [Example 145, N-(2-(2-(2,4-Difluorophenoxy)propan-2-yl)-1-(2-fluoroethyl)-1H-benzo[d]imidazol-5-yl)-2-(4-(ethylsulfonyl)phenyl)acetamide] | < 50 | 79.7 | 85.8
